Columns and labels:
[1] = biological target: JAK1 (Homo sapiens, UniProt P23458); assay: Biochemical JAK kinase assay (LanthaScreen) JAK1
Procedure: (§1) A panel of four LanthaScreen JAK biochemical assays (JAK1, 2, 3 and Tyk2) were carried in a common kinase reaction buffer (50 mM HEPES, pH 7.5, 0.01% Brij-35, 10 mM MgCl2, and 1 mM EGTA). Recombinant GST-tagged JAK enzymes and a GFP-tagged STAT1 peptide substrate were obtained from Life Technologies.
(§2) Serially diluted compounds were pre-incubated with each of the four JAK enzymes and the substrate in white 384-well microplates (Corning) at ambient temperature for 1 h. ATP was subsequently added to initiate the kinase reactions in 10 μL total volume, with 1% DMSO. […] The JAK1 kinase activity was also tested at 1 mM ATP concentration. […] The plates were allowed to incubate at ambient temperature for 1 h before being read on the EnVision reader (Perkin Elmer).
(§3) For dose-response analysis, percent inhibition data were plotted vs. compound concentrations, and IC50 values were determined from a 4-parameter robust fit model with the Prism software (GraphPad Software). Results were expressed as pIC50 (negative logarithm of IC50) and subsequently converted to pKi (negative logarithm of dissociation constant, Ki) using the Cheng-Prusoff equation.

[2] = biological target: JAK2 (Homo sapiens, UniProt O60674); assay: Biochemical JAK kinase assay (LanthaScreen) JAK2
Procedure: as §1, §2, §3

[3] = system: oxazolone-induced colitis; assay: Mouse model of oxazolone-induced colitis; assay type: in vivo
Procedure: Oxazolone-induced colitis is an experimental model that has a histological resemblance to human ulcerative colitis (Heller et al. […], 2002, 17, 629-638). Adult BALB/C mice (25-28 g, 9-12 weeks of age) from BioNeeds (India) were used in the assay. On day 1, animals were lightly anesthetized with isoflurane and the hairs between the shoulder were carefully removed before oxazolone (6 mg/mouse, 100 μL, 4:1 acetone: olive oil formulation) or vehicle solution was slowly applied for skin sensitization. Six days after skin sensitization, the mice were fasted overnight, anesthetized with ketamine and xylazine administered IP, and a 1 mL syringe filled with oxazolone solution, was inserted carefully ˜3.8 cm into the colon of the mouse. Animals were kept in a head down position and oxazolone (0.5 mg/50 μL/mouse in 50% ethanol) or 50% ethanol/saline was rectally instilled very slowly over a minute. The mice were held vertically (head down) for another minute to ensure that the entire oxazolone solution remained inside the colon. Drug treatment (PO, BID or TID) or vehicle was initiated the evening prior to the oxazolone intrarectal (IR) challenge. On both first (Day 1) and second (Day 2) days post-oxazolone IR challenge, the Disease Activity Index (DAI) was assessed by treatment-blinded experimenters for each mouse, according to the following subscores: stool consistency (0, normal; 2, loose; 4, diarrhea), gross bleeding and hemoccult test (0, absence; 2, blood tinged; 4, overt blood presence), and weight loss (0, none; 1, 1%-5%; 2, 6%-10%; 3, 11%-15%; 4, more than 15%); DAI=average of (stool consistency+blood presence+weight loss scores).
An area-under-the-curve (AUC) calculation based on total DAI scores was performed to track disease progression during the course of the experiment. AUC for each experimental group was calculated as: AUC=[(Day 1−Day 0)*Average (DAI Score of Day 0 & Day 1)]+[(Day 2−Day 1)*Average (DAI Score of Day 1 & Day 2)]. A Student's t-test compared the DAI AUC score of the vehicle/vehicle and vehicle/oxazolone groups to evaluate whether disease was induced following oxazolone treatment. This was followed by a one way ANOVA, with Dunnett's post hoc test, to compare the DAI AUC score of the vehicle/oxazolone and test compound/oxazolone groups. Statistical significance was defined by an α level set at p<0.05.

[4] = Metabolic stability in homogenates from rat upper and lower intestinal content; assay type: in vitro ADME; conditions: 37° C.; for half-life: 10 μM; for half-life at 10 μM: rat, diluted 1:10 in DPBS
Procedure: The conversion of compound 1 to tofacitinib was evaluated in the intestinal lumen content prepared from the various GI segments isolated from freshly sacrificed rats. Each segment of content from the duodenum, jejunum, ileum, and colon was diluted 1:10 in Dulbecco's phosphate buffer saline (DPBS) solution. […] The incubation was conducted in a water bath at 37° C. and time points were taken at 0, 5, 10, 20, 40 and 60 min. The total incubation volume was 400 μL and 40 μL aliquots were taken at each time point and diluted into 160 μL of 97% ACN+3% formic acid+an internal standard. The samples were centrifuged at 2200 rcf for 10 min and 50 μL of supernatant was diluted into 150 μL of water+1% formic acid.

Chain of JAK1 (P23458 whole entry): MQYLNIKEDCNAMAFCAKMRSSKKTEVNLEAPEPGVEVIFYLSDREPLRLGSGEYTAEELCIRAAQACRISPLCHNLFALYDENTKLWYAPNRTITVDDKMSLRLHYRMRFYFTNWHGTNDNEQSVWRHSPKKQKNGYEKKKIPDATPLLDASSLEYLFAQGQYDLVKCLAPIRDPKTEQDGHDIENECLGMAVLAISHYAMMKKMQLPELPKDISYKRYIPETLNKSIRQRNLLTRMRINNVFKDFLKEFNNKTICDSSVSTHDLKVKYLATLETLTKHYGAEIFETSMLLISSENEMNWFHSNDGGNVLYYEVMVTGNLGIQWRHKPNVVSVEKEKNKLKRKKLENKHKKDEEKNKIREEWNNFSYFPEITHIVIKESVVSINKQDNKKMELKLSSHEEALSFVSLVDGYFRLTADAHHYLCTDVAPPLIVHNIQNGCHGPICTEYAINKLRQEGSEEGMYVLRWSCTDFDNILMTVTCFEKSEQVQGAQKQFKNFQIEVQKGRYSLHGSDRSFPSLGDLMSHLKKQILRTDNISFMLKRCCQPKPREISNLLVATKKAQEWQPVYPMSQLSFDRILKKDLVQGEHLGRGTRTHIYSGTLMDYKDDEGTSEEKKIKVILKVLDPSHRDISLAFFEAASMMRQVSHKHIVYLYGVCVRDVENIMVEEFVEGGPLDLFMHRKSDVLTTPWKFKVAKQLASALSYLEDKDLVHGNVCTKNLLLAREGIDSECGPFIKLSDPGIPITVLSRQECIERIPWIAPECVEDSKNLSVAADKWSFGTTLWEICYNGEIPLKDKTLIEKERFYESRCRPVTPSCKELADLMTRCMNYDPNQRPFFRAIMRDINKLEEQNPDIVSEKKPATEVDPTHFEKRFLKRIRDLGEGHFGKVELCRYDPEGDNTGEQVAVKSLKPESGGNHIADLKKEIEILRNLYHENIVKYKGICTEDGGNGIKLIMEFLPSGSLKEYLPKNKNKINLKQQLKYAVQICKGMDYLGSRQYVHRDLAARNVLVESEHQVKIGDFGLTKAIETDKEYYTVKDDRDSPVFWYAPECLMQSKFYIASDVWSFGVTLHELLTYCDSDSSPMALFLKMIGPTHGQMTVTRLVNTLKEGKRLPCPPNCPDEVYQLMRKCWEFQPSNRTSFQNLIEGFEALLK
Chain of JAK2 (O60674 whole entry): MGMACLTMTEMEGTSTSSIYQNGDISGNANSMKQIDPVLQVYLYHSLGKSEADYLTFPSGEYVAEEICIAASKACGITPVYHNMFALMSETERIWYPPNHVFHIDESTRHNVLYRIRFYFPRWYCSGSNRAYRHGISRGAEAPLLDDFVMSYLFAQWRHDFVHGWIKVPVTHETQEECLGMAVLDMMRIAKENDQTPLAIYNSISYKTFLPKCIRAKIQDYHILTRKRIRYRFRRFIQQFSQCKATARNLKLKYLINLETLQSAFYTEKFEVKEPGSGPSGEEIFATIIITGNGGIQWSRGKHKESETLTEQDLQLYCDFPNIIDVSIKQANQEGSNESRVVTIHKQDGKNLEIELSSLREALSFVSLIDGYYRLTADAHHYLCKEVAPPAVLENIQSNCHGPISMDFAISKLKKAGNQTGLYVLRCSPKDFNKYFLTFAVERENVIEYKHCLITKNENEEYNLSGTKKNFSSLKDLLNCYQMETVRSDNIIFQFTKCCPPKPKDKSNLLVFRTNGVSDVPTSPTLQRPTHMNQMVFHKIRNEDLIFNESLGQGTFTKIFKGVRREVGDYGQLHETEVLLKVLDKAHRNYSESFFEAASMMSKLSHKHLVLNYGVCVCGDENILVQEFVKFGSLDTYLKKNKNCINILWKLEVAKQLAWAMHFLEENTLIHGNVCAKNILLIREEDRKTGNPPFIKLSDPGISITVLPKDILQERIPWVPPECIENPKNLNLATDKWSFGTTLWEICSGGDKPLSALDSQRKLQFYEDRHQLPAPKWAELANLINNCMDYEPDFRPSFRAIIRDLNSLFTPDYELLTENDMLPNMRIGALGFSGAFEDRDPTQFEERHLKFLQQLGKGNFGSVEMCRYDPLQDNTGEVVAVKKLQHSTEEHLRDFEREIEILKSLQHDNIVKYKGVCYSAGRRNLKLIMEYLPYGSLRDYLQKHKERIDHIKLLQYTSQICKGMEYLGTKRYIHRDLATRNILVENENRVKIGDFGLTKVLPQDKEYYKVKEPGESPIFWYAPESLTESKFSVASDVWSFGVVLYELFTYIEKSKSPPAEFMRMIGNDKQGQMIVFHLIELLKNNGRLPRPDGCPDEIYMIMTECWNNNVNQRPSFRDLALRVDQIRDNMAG

**Q.** With `C[C@@H]1CCN(C(=O)CC#N)C[C@@H]1N(C)c1ncnc2c1ccn2C(=O)N(C)CCN(C)C(=O)OCc1ccc(O[C@@H]2O[C@H](C(=O)O)[C@@H](O)[C@H](O)[C@H]2O)c([N+](=O)[O-])c1` [Compound 1, (2S,3S,4S,5R,6S)-6-(4-((((2-(4-(((3R,4R)-1-(2-cyanoacetyl)-4-methylpiperidin-3-yl)(methyl)amino)-N-methyl-7H-pyrrolo[2,3-d]pyrimidine-7-carboxamido)ethyl)(methyl)carbamoyl)oxy)methyl)-2-nitrophenoxy)-3,4,5-trihydroxytetrahydro-2H-pyran-2-carboxylic acid] as the molecule, how does the IC50 [1] read?
**A.** > 10000 nM

**Q.** What about the Ki [1] of the same molecule?
**A.** > 501 nM

**Q.** And the Ki [2]?
**A.** > 631 nM

**Q.** And the “reversal of oxazolone-induced colitis (DAI AUC score)” value ([3]; 3, 10, and 60 mg/kg, PO, BID, similar magnitude to tofacitinib 30 and 60 mg/kg)?
**A.** significant reversal

**Q.** And the “In vivo efficacy (oxazolone colitis), effective dose” value ([3]; Effective dose that exhibits a comparable pharmacological effect in the oxazolone model compared to its vehicle)?
**A.** 3 mg/kg

**Q.** And the half-life ([4]; Colon content)?
**A.** <5 min

**Q.** What about the half-life ([4]; Duodenum content) of the same molecule?
**A.** >60 min

**Q.** And the half-life ([4]; Jejunum content)?
**A.** >60 min

**Q.** And the half-life at 10 μM ([4]; colon lumen content, Colon content)?
**A.** < 5 min

**Q.** What about the half-life at 10 μM ([4]; duodenum lumen content, Duodenum content) of the same molecule?
**A.** > 60 min

**Q.** What about the half-life at 10 μM ([4]; ileum lumen content, Ileum content) of the same molecule?
**A.** 34 min

**Q.** And the half-life at 10 μM ([4]; jejunum lumen content, Jejunum content)?
**A.** > 60 min
